The results in this text go back to PubChem BioAssay AID488833 (Sanford-Burnham Center for Chemical Genomics, 2010).

Activity calls are given as the source filed them.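 Rule for the calls: active = EC50 below a set limit; inactive = the rest.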

In the experiment the target is Kappa-type opioid receptor (Homo sapiens) (UniProt P41145). The experiment is described as follows: KOR agonist analogs, arrestin-GFP redistribution, SAR follow-up, imaging, image-based, set 3 (AID 488833). The following applies: U2OS KOR beta-arrestin-GFP translocation imaging.
Sequence of Kappa-type opioid receptor (Homo sapiens) (P41145 whole entry, looked up): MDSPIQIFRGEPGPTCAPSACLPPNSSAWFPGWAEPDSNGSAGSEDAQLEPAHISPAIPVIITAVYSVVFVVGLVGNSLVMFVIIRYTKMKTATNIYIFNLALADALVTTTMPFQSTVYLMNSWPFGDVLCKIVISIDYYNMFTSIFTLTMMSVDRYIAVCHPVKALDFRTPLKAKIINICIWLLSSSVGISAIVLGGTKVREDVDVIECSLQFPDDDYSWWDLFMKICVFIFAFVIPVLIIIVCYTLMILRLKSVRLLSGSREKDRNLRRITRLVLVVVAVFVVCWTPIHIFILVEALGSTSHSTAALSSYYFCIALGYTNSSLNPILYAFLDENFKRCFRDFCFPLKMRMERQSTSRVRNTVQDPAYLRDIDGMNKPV

With `Cc1ccccc1CSc1nnc(-c2ccccn2)n1Cc1cccs1`, the EC50 result was “inactive”.
